The numbers were not newly measured in patent publication US20030003095A1, “Activated carbon for preventing pregnancy and sexually transmitted disease” (The Procter & Gamble Company, priority 2002, published 2003), which cites them from elsewhere.

For this series the following is noted: stated in words, no test described.
Turning to `N=C(NCCCCCCNC(=N)NC(=N)Nc1ccc(Cl)cc1)NC(=N)Nc1ccc(Cl)cc1.O=C(O)[C@H](O)[C@@H](O)[C@H](O)[C@H](O)CO.O=C(O)[C@H](O)[C@@H](O)[C@H](O)[C@H](O)CO` [chlorhexidene digluconate], the water solubility entry is “water-soluble”. On to `Oc1cc(Cl)ccc1Oc1ccc(Cl)cc1Cl` [triclosan], for which the water solubility result was “water insoluble”. Consider nonoxynol-9, for which the water solubility result is on record as “slightly water soluble”.
